# Measured values reported in ChEMBL document CHEMBL1148667, “1,2,4-Oxadiazolidin-3,5-diones and 1,3,5-triazin-2,4,6-triones as cytosolic phospholipase A2alpha inhibitors” (Bioorg Med Chem Lett, 2006).
# Activity calls are given as the source filed them. The rule behind the calls is not given here.
# Tests used:
# [1] = biological target: T1, Cytosolic phospholipase A2 (Homo sapiens, UniProt P47712); experiment: Inhibition of cPLA2-alpha by GLU micelle assay
# T1 sequence (P47712 whole entry): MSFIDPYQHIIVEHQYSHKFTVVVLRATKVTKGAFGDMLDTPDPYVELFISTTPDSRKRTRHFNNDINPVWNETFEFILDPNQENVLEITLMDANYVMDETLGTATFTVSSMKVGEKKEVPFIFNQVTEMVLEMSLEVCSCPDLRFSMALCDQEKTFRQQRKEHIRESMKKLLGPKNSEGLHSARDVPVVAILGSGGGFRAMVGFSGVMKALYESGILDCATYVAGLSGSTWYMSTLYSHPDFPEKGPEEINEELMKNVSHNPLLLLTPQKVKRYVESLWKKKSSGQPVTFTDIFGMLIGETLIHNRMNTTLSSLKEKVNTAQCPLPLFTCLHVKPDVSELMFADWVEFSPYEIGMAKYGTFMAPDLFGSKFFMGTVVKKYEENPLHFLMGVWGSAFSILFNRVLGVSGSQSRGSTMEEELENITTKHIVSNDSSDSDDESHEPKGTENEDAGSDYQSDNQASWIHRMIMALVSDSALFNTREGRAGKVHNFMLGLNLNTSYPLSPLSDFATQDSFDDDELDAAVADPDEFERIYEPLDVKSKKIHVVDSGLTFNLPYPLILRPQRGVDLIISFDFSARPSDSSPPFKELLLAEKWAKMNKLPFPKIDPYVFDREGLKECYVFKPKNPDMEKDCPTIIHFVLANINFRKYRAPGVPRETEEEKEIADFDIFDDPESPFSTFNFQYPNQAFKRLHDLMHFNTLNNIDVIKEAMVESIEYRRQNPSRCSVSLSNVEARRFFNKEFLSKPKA
# MC9 = experiment: Inhibition of PGF2-alpha production in MC9 cell line in presence of arachidonic acid; assay type: functional, cell-based; conditions: Mus musculus
# [2] = Inhibition of LTB4 production in MC9 cell line; assay type: functional, cell-based; conditions: Mus musculus
# [3] = Inhibition of PGF2-alpha production in MC9 cell line; assay type: functional, cell-based; conditions: Mus musculus
# [4] = Inhibition of ionophore-stimulated TXB2 production in rat whole blood; assay type: functional, tissue-based
Structure (SMILES),IC50 [1],also measured
O=C(O)c1ccc(OCCn2c(=O)n(-c3ccccc3)c(=O)n(C(c3ccccc3)c3ccccc3)c2=O)cc1,> 50 µM,–
O=C(O)c1ccc(OC/C=C/Cn2c(=O)n(Cc3ccccc3)c(=O)n(C(c3ccccc3)c3ccccc3)c2=O)cc1,1.3 µM,Activity (MC9): inactive; IC50 [2]: 0.5 µM; IC50 [3]: 0.8 µM; IC50 [4]: 5.2 µM
CCCCn1c(=O)n(CCOc2ccc(C(=O)O)cc2)c(=O)n(C(c2ccccc2)c2ccccc2)c1=O,5.6 µM,–
O=C(O)c1ccc(OCCn2c(=O)n(Cc3ccccc3)c(=O)n(C(c3ccccc3)c3ccccc3)c2=O)cc1,3.5 µM,–
CCn1c(=O)n(C/C=C/COc2ccc(C(=O)O)cc2)c(=O)n(C(c2ccccc2)c2ccccc2)c1=O,1.6 µM,–
C=CCn1c(=O)n(C/C=C/COc2ccc(C(=O)O)cc2)c(=O)n(C(c2ccccc2)c2ccccc2)c1=O,1.3 µM,–
O=C(O)c1ccc(OCCn2c(=O)n(Cc3ccccc3)c(=O)n(CC(c3ccccc3)c3ccccc3)c2=O)cc1,30 µM,–
CCCCn1c(=O)n(C/C=C/COc2ccc(C(=O)O)cc2)c(=O)n(C(c2ccccc2)c2ccccc2)c1=O,2.4 µM,–

# Further lines, with some results ahead:
IC50 [1],Structure (SMILES),also measured
> 50 µM,O=C(O)c1ccc(OC/C=C/Cn2c(=O)on(CC(c3ccccc3)c3ccccc3)c2=O)cc1,–
> 50 µM,O=C(O)c1cccc(OCCn2c(=O)on(CC(c3ccccc3)c3ccccc3)c2=O)c1,–
> 50 µM,O=C(O)c1ccc(OCCCCn2c(=O)on(CC(c3ccccc3)c3ccccc3)c2=O)cc1,–
> 50 µM,O=C(O)c1ccc(OCCn2c(=O)on(C(Cc3ccccc3)Cc3ccccc3)c2=O)cc1,–
23 µM,O=C(O)c1ccc(OCC#CCn2c(=O)on(CC(c3ccccc3)c3ccccc3)c2=O)cc1,–
7.5 µM,CCn1c(=O)n(CCOc2ccc(C(=O)O)cc2)c(=O)n(C(c2ccccc2)c2ccccc2)c1=O,–
> 50 µM,O=C(O)c1ccc(OCCn2c(=O)on(C(c3ccccc3)c3ccccc3)c2=O)cc1,–
27 µM,O=C(O)c1ccc(OCCn2c(=O)on(CC(c3ccccc3)c3ccccc3)c2=O)cc1O,–
6.7 µM,O=C(O)c1ccc(OCCn2c(=O)on(CC(c3ccccc3)c3ccccc3)c2=O)cc1,–
5 µM,C=CCn1c(=O)n(CCOc2ccc(C(=O)O)cc2)c(=O)n(C(c2ccccc2)c2ccccc2)c1=O,–
12.4 µM,O=C(O)c1ccc(OCCCn2c(=O)on(CC(c3ccccc3)c3ccccc3)c2=O)cc1,–
